Experimental data: ChEMBL document CHEMBL1134843, “Tyrosine kinase inhibitors. 18. 6-Substituted 4-anilinoquinazolines and 4-anilinopyrido[3,4-d]pyrimidines as soluble, irreversible inhibitors of the epidermal growth factor receptor” (J Med Chem, 2001)

Columns and labels:
[1] = biological target: Receptor tyrosine-protein kinase erbB-2 (Homo sapiens, UniProt P04626); experiment: Inhibition of heregulin-stimulated autophosphorylation of erbB2 in MDA-MB 453 cells; format: cell-based
A-431 [2] = experiment: In vivo activity in A431 tumor bearing mice, maximum dose (schedule 12-26 days); format: functional
A-431 [3] = experiment: In vivo activity in A431 tumor bearing mice, relative time required for treated and control tumors to reach 750 mg (schedule 12-26 days); format: functional
A-431 [4] = experiment: In vivo activity in A431 tumor bearing mice, ratio of treated and control tumor mass day 26; format: functional
A-431 [5] = experiment: In vivo activity in A431 tumor bearing mice, maximum weight loss days 12-26; format: functional
NCI-H125 [6] = experiment: In vivo activity in H125 tumor bearing mice, maximum dose (schedule 15-29 days); format: functional, Mus musculus
NCI-H125 [7] = experiment: In vivo activity in H125 tumor bearing mice, relative time required for treated and control tumors to reach 750 mg (schedule 15-29 days); format: functional, Mus musculus
NCI-H125 [8] = experiment: In vivo activity in H125 tumor bearing mice, ratio of treated and control tumor mass day 29; format: functional, Mus musculus
NCI-H125 [9] = experiment: In vivo activity in H125 tumor bearing mice, maximum weight loss days 15-29; format: functional, Mus musculus
MCF7 [10] = experiment: In vivo activity in MCF-7 tumor bearing mice, maximum dose (schedule 17-31 days); format: functional
MCF7 [11] = experiment: In vivo activity in MCF-7 tumor bearing mice, ratio of treated and control tumor mass day 31; format: functional
MCF7 [12] = experiment: In vivo activity in MCF-7 tumor bearing mice, relative time required for treated and control tumors to reach 750 mg (schedule 17-31 days); format: functional
A-431 [13] = experiment: In vivo activity in A431 tumor bearing mice, maximum dose (schedule 10-24 days); format: functional
MCF7 [14] = experiment: In vivo activity in MCF-7 tumor bearing mice, maximum dose (schedule 11-25 days); format: functional
MCF7 [15] = experiment: In vivo activity in MCF-7 tumor bearing mice, maximum weight loss days 11-25; format: functional
MCF7 [16] = experiment: In vivo activity in MCF-7 tumor bearing mice, ratio of treated and control tumor mass day 25; format: functional
MCF7 [17] = experiment: In vivo activity in MCF-7 tumor bearing mice, relative time required for treated and control tumors to reach 750 mg (schedule 11-25 days); format: functional
[18] = biological target: Epidermal growth factor receptor (Homo sapiens, UniProt P00533)
Chain of Epidermal growth factor receptor (P00533 whole entry): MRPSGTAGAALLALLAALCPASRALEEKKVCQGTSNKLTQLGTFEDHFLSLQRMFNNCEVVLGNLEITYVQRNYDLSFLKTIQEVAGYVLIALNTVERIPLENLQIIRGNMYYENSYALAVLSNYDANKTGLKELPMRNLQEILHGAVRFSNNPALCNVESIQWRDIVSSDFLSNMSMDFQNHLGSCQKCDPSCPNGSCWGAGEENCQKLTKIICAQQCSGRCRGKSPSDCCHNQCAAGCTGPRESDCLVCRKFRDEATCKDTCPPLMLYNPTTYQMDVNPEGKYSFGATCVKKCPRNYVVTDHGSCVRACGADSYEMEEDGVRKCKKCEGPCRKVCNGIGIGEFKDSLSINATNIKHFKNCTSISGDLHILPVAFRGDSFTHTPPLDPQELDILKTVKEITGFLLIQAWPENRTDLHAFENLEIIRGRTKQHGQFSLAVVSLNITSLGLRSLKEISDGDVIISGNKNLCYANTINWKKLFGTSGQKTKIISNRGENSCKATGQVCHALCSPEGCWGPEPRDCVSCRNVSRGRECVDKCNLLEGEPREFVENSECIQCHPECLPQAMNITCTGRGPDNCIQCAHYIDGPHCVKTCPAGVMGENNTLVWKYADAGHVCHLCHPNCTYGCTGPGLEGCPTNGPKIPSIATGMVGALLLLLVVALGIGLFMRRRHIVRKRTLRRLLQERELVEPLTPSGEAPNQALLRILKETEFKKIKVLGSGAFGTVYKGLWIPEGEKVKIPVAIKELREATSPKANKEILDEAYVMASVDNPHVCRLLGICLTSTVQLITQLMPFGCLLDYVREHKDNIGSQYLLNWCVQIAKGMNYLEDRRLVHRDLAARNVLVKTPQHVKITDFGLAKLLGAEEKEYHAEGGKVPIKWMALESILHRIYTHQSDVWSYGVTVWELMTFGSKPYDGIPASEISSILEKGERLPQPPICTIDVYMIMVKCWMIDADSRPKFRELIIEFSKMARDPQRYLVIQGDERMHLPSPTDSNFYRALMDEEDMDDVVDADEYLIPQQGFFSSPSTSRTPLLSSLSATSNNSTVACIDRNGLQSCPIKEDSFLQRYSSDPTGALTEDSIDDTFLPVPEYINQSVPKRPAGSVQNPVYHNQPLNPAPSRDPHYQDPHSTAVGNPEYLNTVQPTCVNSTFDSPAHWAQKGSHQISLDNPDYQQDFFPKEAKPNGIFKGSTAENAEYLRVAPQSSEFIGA
Description: Inhibition of phosphorylation of a polyglutamic acid/tyrosine random copolymer by EGFR enzyme (from human A431 carcinoma cell vesicles)

Chain of Receptor tyrosine-protein kinase erbB-2 (P04626 whole entry): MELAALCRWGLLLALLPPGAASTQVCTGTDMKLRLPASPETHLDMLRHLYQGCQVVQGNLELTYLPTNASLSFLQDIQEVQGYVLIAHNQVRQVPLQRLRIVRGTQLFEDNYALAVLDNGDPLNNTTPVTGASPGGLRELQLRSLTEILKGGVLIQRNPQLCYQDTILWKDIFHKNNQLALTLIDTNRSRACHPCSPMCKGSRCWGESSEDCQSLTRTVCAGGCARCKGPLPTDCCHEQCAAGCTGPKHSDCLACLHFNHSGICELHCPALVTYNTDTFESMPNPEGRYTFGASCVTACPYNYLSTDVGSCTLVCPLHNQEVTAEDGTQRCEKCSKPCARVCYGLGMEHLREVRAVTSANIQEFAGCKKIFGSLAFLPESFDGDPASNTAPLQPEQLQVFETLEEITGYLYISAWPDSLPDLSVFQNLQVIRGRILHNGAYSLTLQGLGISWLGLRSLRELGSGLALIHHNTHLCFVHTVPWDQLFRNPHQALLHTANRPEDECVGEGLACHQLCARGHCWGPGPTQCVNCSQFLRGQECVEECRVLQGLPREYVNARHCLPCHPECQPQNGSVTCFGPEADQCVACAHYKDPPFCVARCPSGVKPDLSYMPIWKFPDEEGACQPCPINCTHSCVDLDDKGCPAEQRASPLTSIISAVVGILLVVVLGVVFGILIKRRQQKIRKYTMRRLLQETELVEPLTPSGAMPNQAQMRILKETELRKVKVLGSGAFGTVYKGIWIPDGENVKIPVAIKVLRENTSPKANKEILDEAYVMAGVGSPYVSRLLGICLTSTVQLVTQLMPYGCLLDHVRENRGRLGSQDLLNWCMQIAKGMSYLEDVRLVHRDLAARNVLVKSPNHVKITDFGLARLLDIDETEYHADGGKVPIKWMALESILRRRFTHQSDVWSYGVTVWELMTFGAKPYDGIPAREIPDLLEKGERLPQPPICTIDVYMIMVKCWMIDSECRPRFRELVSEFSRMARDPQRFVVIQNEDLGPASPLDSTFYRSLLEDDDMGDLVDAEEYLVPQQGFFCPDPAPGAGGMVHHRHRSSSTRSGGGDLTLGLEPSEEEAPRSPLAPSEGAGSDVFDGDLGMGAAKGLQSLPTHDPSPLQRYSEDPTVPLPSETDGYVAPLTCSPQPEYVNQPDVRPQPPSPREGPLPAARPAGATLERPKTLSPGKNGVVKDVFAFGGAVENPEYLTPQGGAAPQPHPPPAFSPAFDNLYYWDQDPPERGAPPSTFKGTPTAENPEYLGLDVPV

## O=C(/C=C/C(=O)Nc1cc2c(Nc3cccc(Br)c3)ncnc2cn1)NCCCN1CCOCC1
[1]
  IC50: 5 nM

## O=C(/C=C/C(=O)Nc1cc2c(Nc3ccc(F)c(Cl)c3)ncnc2cn1)NCCCN1CCOCC1
A-431 [2]
  HDT: 200 mg/kg
A-431 [3]
  T-C: 5.2 days
A-431 [4]
  T/C: 70%
A-431 [5]
  Weight change: -0.1 g
[1]
  IC50: 24 nM
NCI-H125 [6]
  HDT: 200 mg/kg
NCI-H125 [7]
  T-C: 7.9 days
NCI-H125 [8]
  T/C: 23%
NCI-H125 [9]
  Weight change: -0.3 g
MCF7 [10]
  HDT: 200 mg/kg
MCF7 [11]
  T/C: 124%
MCF7 [12]
  T-C: 6.8 days

## C=CC(=O)N(C)c1cc2c(Nc3cccc(Br)c3)ncnc2cn1
A-431 [13]
  HDT: 200 mg/kg
A-431 [3]
  T-C: 5.2 days
A-431 [4]
  T/C: 62%
A-431 [5]
  Weight change: -0.1 g
NCI-H125 [6]
  HDT: 200 mg/kg
NCI-H125 [7]
  T-C: 7.3 days
NCI-H125 [8]
  T/C: 56%
NCI-H125 [9]
  Weight change: -0.4 g
MCF7 [14]
  HDT: 200 mg/kg
MCF7 [15]
  Weight change: -0.3 g
MCF7 [16]
  T/C: 88%
MCF7 [17]
  T-C: 1.5 days

## CN(C)CCCNC(=O)/C=C/C(=O)Nc1cc2c(Nc3cccc(Br)c3)ncnc2cn1
[1]
  IC50: 13 nM

## O=S(=O)(CCO)c1cc2c(Nc3cccc(Br)c3)ncnc2cn1
[18]
  IC50: 93.5 nM

## O=C(/C=C/C(=O)Nc1cc2c(Nc3cccc(Br)c3)ncnc2cn1)NCCCn1ccnc1
[1]
  IC50: 8.1 nM

## CN(C)CCCNC(=O)/C=C/C(=O)Nc1ccc2ncnc(Nc3cccc(Br)c3)c2c1
[1]
  IC50: 207 nM

## CCN(CC)CCCNC(=O)/C=C/C(=O)Nc1cc2c(Nc3cccc(Br)c3)ncnc2cn1
[1]
  IC50: 14 nM
